Experimental data reported in patent publication US6703214B2, “Lipid uptake assays” (Devgen NV, priority 2000, dated 2004).

Columns and labels:
C. elegans = test: Fatty acid uptake assay after overnight compound incubation (activation of FATPs), C4-BODIPY-C9 probe; type: in vivo
Protocol: A fixed amount of probe is then distributed in the microtiter wells. The nematodes are incubated for one hour at room temperature in presence or absence of molecules to be tested. The microtiter plate is rinsed 3 to 4 times, using a standard plate washer (Wellwash, Labsystems, Zellik, Belgium), taking care to perform the aspiration sufficiently distant from the bottom of the well to avoid any loss of nematodes remaining at the bottom. The fluorescence intensity is then measured using a fluorescence microtiter plate reader, using a standard set of fluorescein filters.
Retinoic acid and troglutazones are activators of RXR and PPARγ respectively. C. elegans worms were incubated with these compounds in a range from 100 μM to 0.1 μM for a time period between 1 to 6 hours. Fatty acid uptake was measured using the microtiter plate assay described above.
More particularly, constitutive pharynx pumping worms in late L4 stage or young adults were incubated overnight on agar plates with different concentrations of the retinoic acid or troglutazone (e.g. Rosiglitazon). The compounds were added as solutions in 1 ml M9. After overnight incubation, these worms were further incubated for 1 h with 50 μM C4-BODIPY-C9 in 1 ml M9 on the same agar plates. After incubation the worms were washed three times and dispensed with the worm dispenser, up to 50 worms per well in the multi-well plates. Fluorescence intensity was measured using a microtiter plate reader, as described above.

[1] = test system: wild type (N2) C. elegans; test: Lipid uptake assay with quenched probe (QBFA) in liquid culture after overnight compound incubation on agar plates; type: in vivo; conditions: L4 stage worms, about 16 h with various concentrations; 10 μM QBFA, fluorescence read after 2 hours; FIG. 21
Protocol: Standard 9 cm agar plates were seeded with E. coli (any strain suitable for use in culture of C. elegans may be used). 1 ml volume of rosiglitazone at various concentrations was added to the plates and the plates seeded with L4 stage C. elegans. After an overnight incubation (approximately 16 h), the C. elegans were isolated and washed three times with approximately 15 ml M9 buffer. The worms were then re-suspended into microtiter plates, at 100 worms per well. Quenched probe (QBFA) was added at a final concentration of 10 μM in a total volume of 100 μl. Fluorescence measurements were taken after 2 hours in an automated plate reader. Typical results are illustrated in FIG. 21.

Molecule | increase in fatty acid uptake (C. elegans; constitutive pharynx pumping worms, late L4/young adults, overnight incubation with compound on agar plates, 1 h with 50 μM C4-BODIPY-C9, FIG. 8) | increase in fatty acid uptake, also observed at low concentration (C. elegans; only 3 μM of Rosiglitazon applied, otherwise as E1) | effect on lipid uptake (in words) [1] | effect on fatty acid uptake (in words) (C. elegans; increased expression of FATP by applying the compound)
CN(CCOc1ccc(CC2SC(=O)NC2=O)cc1)c1ccccn1 (stereo not shown) [Rosiglitazon] | 5 fold | 5 fold | have an effect on lipid uptake | –
troglutazone | – | – | – | clearly enhanced fatty acid uptake
